Each structure is given as a SMILES string. Like-named read-outs stand apart in the source and are kept apart here.

Assay type in all cases: cell-based, HIV-1
One assay concerns HIV-IIIb IN T174I BT. Kind of assay: Antiviral assay in MT4 cells, HIV-IIIb IN T174I BT virus (from viral breakthrough). The conditions noted are these: Human immunodeficiency virus 1, IIIB, MT4, 120 h, read-out: T174I BT EC50, MT4 cells, HIV-IIIb IN T174I BT (viral breakthrough), 5 days, CellTiter-Glo. Put shortly: (§1)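 HIV-IIIb at 0.004 m.o.i., 3 h pre-infection of MT4 cells at 37 °C; 2000 cells/well in RPMI 1640 + 10% FBS with 3-fold compound dilutions, 10 conc., quadruplicate. 5-day incubation, CellTiter-Glo readout. EC50 = 50% luminescence decrease.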
(Cellular ATP, detected with luciferase, serves as a proxy for viable cell number.)

A further assay relates to HIV-IIIb (wildtype). Kind of assay: Antiviral assay in MT4 cells, HIV-IIIb wildtype. As to conditions: read-out: WT EC50. Put shortly:
as §1

For the next assay, the system named is HIV-IIIb IN T174I DE. The experiment in a line: Antiviral assay in MT4 cells, HIV-IIIb IN T174I DE virus (from dose escalation passaging). The conditions noted are these: Human immunodeficiency virus 1, IIIB, MT4, 120 h, read-out: T174I DE EC50, MT4 cells, HIV-IIIb IN T174I DE (dose escalation), 5 days, CellTiter-Glo. Put shortly:
as §1

Where [1] appears, read: Human immunodeficiency virus 1, IIIB, MT4, 120 h.
[2] abbreviates: Human immunodeficiency virus 1, 120 h, MT4 cells, HIV-IIIb wildtype, 5 days, CellTiter-Glo.

Usually EC50 stands for the concentration at which the effect is half-maximal. On to `CCN1CCC(c2nn(C)c3ccc(-c4nc5cc(C)c([C@H](OC(C)(C)C)C(=O)O)c(-c6ccc(Cl)cc6)c5s4)cc23)CC1` [Compound 126, (S)-2-(tert-butoxy)-2-(7-(4-chloro-phenyl)-2-(3-(1-ethylpiperidin-4-yl)-1-methyl-1H-indazol-5-yl)-5-methylbenzo[d]thiazol-6-yl) acetic acid], for which the EC50 with HIV-IIIb IN T174I BT was 551 nM; with HIV-IIIb (wildtype) (setting [1]) it was 8 nM; in the assay with HIV-IIIb IN T174I DE it was 540 nM.
With `Cc1cc2nc(-c3ccc4c(c3)c(C3CCN(C(C)C)CC3)nn4C)sc2c(-c2ccc(Cl)cc2)c1[C@H](OC(C)(C)C)C(=O)O` [Compound 127, (S)-2-(tert-butoxy)-2-(7-(4-chloro-phenyl)-2-(3-(1-isopropylpiperidin-4-yl)-1-methyl-1H-indazol-5-yl)-5-methylbenzo[d]thiazol-6-yl) acetic acid], the concentration giving a half-maximal response (EC50) in the assay on HIV-IIIb IN T174I BT turned out to be 932 nM; in the assay on HIV-IIIb (wildtype) (setting [1]) it was 8 nM; in the assay on HIV-IIIb IN T174I DE, 1700 nM.
Turning to `Cc1cc2nc(-c3ccc4c(c3)c(C3CCN(C5CCC5)CC3)nn4C)sc2c(-c2ccc(Cl)cc2)c1[C@H](OC(C)(C)C)C(=O)O` [Compound 129, (S)-2-(tert-butoxy)-2-(7-(4-chloro-phenyl)-2-(3-(1-cyclobutylpiperidin-4-yl)-1-methyl-1H-indazol-5-yl)-5-methylbenzo[d]thiazol-6-yl) acetic acid], the values for the EC50 in the assay with HIV-IIIb IN T174I BT, with HIV-IIIb (wildtype) (setting [2]) and in the assay on HIV-IIIb IN T174I DE were 509 nM, 5 nM and 696 nM, respectively.
With `Cc1cc2nc(-c3ccc4c(c3)c(N3CCCN(C)CC3)nn4C)sc2c(-c2ccc(Cl)cc2)c1[C@H](OC(C)(C)C)C(=O)O` [Compound 132, (S)-2-(tert-butoxy)-2-(7-(4-chloro-phenyl)-5-methyl-2-(1-methyl-3-(4-methyl-1,4-diazepan-1-yl)-1H-indazol-5-yl)benzo[d]thiazol-6-yl)acetic acid], the EC50 worked out at 1100 nM in the assay on HIV-IIIb IN T174I BT, 25 nM in the assay on HIV-IIIb (wildtype) (setting [1]) and 1680 nM with HIV-IIIb IN T174I DE.
In the same order, the values of `Cc1cc2nc(-c3ccc4c(c3)c(N3CCC(N5CCC5)CC3)nn4C)sc2c(-c2ccc(Cl)cc2)c1[C@H](OC(C)(C)C)C(=O)O` [Compound 136, (S)-2-(2-(3-(4-(azetidin-1-yl)piperidin-1-yl)-1-methyl-1H-indazol-5-yl)-7-(4-chlorophenyl)-5-methylbenzo[d]thiazol-6-yl)-2-(tert-butoxy) acetic acid] are 857 nM, 14 nM and 1700 nM.
Regarding `Cc1cc2nc(-c3ccc4c(c3)c(N3CCC(C)(C(=O)N(C)C)CC3)nn4C)sc2c(-c2ccc(Cl)cc2)c1[C@H](OC(C)(C)C)C(=O)O` [Compound 137, (S)-2-(tert-butoxy)-2-(7-(4-chloro-phenyl)-2-(3-(4-(dimethyl-carbamoyl)-4-methylpiperidin-1-yl)-1-methyl-1H-indazol-5-yl)-5-methylbenzo[d]thiazol-6-yl) acetic acid], the concentration giving a half-maximal response (EC50) came to 697 nM with HIV-IIIb IN T174I BT, 10 nM in the assay on HIV-IIIb (wildtype) (setting [1]) and 962 nM in the assay with HIV-IIIb IN T174I DE.
For `Cc1cc2nc(-c3ccc4c(c3)c(N3CCN5C(=O)COC[C@@H]5C3)nn4C)sc2c(-c2ccc(Cl)cc2)c1[C@H](OC(C)(C)C)C(=O)O` [Compound 138, (S)-2-(tert-butoxy)-2-(7-(4-chloro-phenyl)-5-methyl-2-(1-methyl-3-((S)-4-oxohexa-hydropyrazino[2,1-c][1,4]oxazin-8 (1H)-yl)-1H-indazol-5-yl)benzo[d]thiazol-6-yl)acetic acid], the values for the half-maximal effective concentration (EC50) in the assay with HIV-IIIb IN T174I BT, in the assay with HIV-IIIb (wildtype) (setting [1]) and with HIV-IIIb IN T174I DE were 373 nM, 7 nM and 678 nM, respectively.
Take `CO[C@H]1CCN(c2nn(C)c3ccc(-c4nc5cc(C)c([C@H](OC(C)(C)C)C(=O)O)c(-c6ccc(Cl)cc6)c5s4)cc23)C1` [Compound 139, (S)-2-(tert-butoxy)-2-(7-(4-chloro-phenyl)-2-(3-((S)-3-methoxy-pyrrolidin-1-yl)-1-methyl-1H-indazol-5-yl)-5-methylbenzo[d]thiazol-6-yl) acetic acid]: the EC50 with HIV-IIIb IN T174I BT was found to be 7810 nM; in the assay with HIV-IIIb (wildtype) (setting [1]), 88 nM; in the assay with HIV-IIIb IN T174I DE it was 5780 nM.
Consider `CO[C@@H]1CCN(c2nn(C)c3ccc(-c4nc5cc(C)c([C@H](OC(C)(C)C)C(=O)O)c(-c6ccc(Cl)cc6)c5s4)cc23)C1` [Compound 140, (S)-2-(tert-butoxy)-2-(7-(4-chloro-phenyl)-2-(3-((R)-3-methoxy-pyrrolidin-1-yl)-1-methyl-1H-indazol-5-yl)-5-methylbenzo[d]thiazol-6-yl) acetic acid], for which the 50% effective concentration (EC50) came to 2370 nM with HIV-IIIb IN T174I BT, 29 nM in the assay with HIV-IIIb (wildtype) (setting [1]) and 2630 nM with HIV-IIIb IN T174I DE.
Regarding `Cc1cc2nc(-c3ccc4c(c3)c(N3CC5CCC(C3)O5)nn4C)sc2c(-c2ccc(Cl)cc2)c1[C@H](OC(C)(C)C)C(=O)O` [Compound 141, (2S)-2-(2-(3-(8-oxa-3-azabicyclo [3.2.1]octan-3-yl)-1-methyl-1H-indazol-5-yl)-7-(4-chlorophenyl)-5-methylbenzo [d]thiazol-6-yl)-2-(tert-butoxy) acetic acid], the 50% effective concentration (EC50) in the assay on HIV-IIIb IN T174I BT was determined as 3560 nM; with HIV-IIIb (wildtype) (setting [1]) it was 24 nM; in the assay on HIV-IIIb IN T174I DE it was 3930 nM.
On to `COC1CCN(c2nn(C)c3ccc(-c4nc5cc(C)c([C@H](OC(C)(C)C)C(=O)O)c(-c6ccc(Cl)cc6)c5s4)cc23)CC1` [Compound 142, (S)-2-(tert-butoxy)-2-(7-(4-chloro-phenyl)-2-(3-(4-methoxypiperidin-1-yl)-1-methyl-1H-indazol-5-yl)-5-methylbenzo[d]thiazol-6-yl) acetic acid], for which the 50% effective concentration (EC50) in the assay on HIV-IIIb IN T174I BT was determined as 1560 nM; in the assay on HIV-IIIb (wildtype) (setting [1]), 12 nM; in the assay on HIV-IIIb IN T174I DE, 2330 nM.
In the case of `Cc1cc2nc(-c3ccc4c(c3)c(N3CC5CC(C3)O5)nn4C)sc2c(-c2ccc(Cl)cc2)c1[C@H](OC(C)(C)C)C(=O)O` [Compound 143, (2S)-2-(2-(3-(6-oxa-3-azabicyclo [3.1.1]heptan-3-yl)-1-methyl-1H-indazol-5-yl)-7-(4-chlorophenyl)-5-methylbenzo [d]thiazol-6-yl)-2-(tert-butoxy) acetic acid], the concentration for a half-maximal effect (EC50) with HIV-IIIb IN T174I BT came to 5780 nM; with HIV-IIIb (wildtype) (setting [2]) it was 27 nM; with HIV-IIIb IN T174I DE, 5610 nM.
Take `Cc1cc2nc(-c3ccc4c(c3)c(N3CCOCC3)nn4C)sc2c(-c2ccc(Cl)cc2)c1[C@H](OC(C)(C)C)C(=O)O` [Compound 144, (S)-2-(tert-butoxy)-2-(7-(4-chloro-phenyl)-5-methyl-2-(1-methyl-3-morpholino-1H-indazol-5-yl)benzo[d]thiazol-6-yl)acetic acid]: the 50% effective concentration (EC50) was found to be 1810 nM with HIV-IIIb IN T174I BT, 10 nM in the assay on HIV-IIIb (wildtype) (setting [1]) and 3270 nM with HIV-IIIb IN T174I DE.
Consider `Cc1cc2nc(-c3ccc4c(c3)c(N3CCC(C5COC5)CC3)nn4C)sc2c(-c2ccc(Cl)cc2)c1[C@H](OC(C)(C)C)C(=O)O` [Compound 146, (S)-2-(tert-butoxy)-2-(7-(4-chloro-phenyl)-5-methyl-2-(1-methyl-3-(4-(oxetan-3-yl)piperidin-1-yl)-1H-indazol-5-yl)benzo[d]thiazol-6-yl)acetic acid], for which the half-maximal effective concentration (EC50) worked out at 1740 nM in the assay with HIV-IIIb IN T174I BT, 31 nM in the assay on HIV-IIIb (wildtype) (setting [1]) and 2220 nM in the assay with HIV-IIIb IN T174I DE.
Consider `CC(=O)N1CC[C@@H]1CN1CCC(c2nn(C)c3ccc(-c4nc5cc(C)c([C@H](OC(C)(C)C)C(=O)O)c(-c6ccc(Cl)cc6)c5s4)cc23)CC1` [Compound 148, (S)-2-(2-(3-(1-(((R)-1-acetyl-azetidin-2-yl)methyl)piperidin-4-yl)-1-methyl-1H-indazol-5-yl)-7-(4-chloro-phenyl)-5-methylbenzo[d]thiazol-6-yl)-2-(tert-butoxy) acetic acid], for which the results for the 50% effective concentration (EC50) with HIV-IIIb IN T174I BT, with HIV-IIIb (wildtype) (setting [1]) and with HIV-IIIb IN T174I DE were 143 nM, 12 nM and 199 nM, respectively.
Regarding `Cc1cc2nc(-c3ccc4c(c3)c(C3CCN(C[C@@H]5CCN5C)CC3)nn4C)sc2c(-c2ccc(Cl)cc2)c1[C@H](OC(C)(C)C)C(=O)O` [Compound 149, (S)-2-(tert-butoxy)-2-(7-(4-chloro-phenyl)-5-methyl-2-(1-methyl-3-(1-(((S)-1-methyl-azetidin-2-yl)methyl)piperidin-4-yl)-1H-indazol-5-yl)benzo[d]thiazol-6-yl) acetic acid], the half-maximal effective concentration (EC50) with HIV-IIIb IN T174I BT came out at 80 nM; in the assay on HIV-IIIb (wildtype) (setting [1]), 11 nM; in the assay on HIV-IIIb IN T174I DE, 98 nM.
In the case of `COC(=O)N1CC[C@H]1CN1CCC(c2nn(C)c3ccc(-c4nc5cc(C)c([C@H](OC(C)(C)C)C(=O)O)c(-c6ccc(Cl)cc6)c5s4)cc23)CC1` [Compound 150, (S)-2-(tert-butoxy)-2-(7-(4-chloro-phenyl)-2-(3-(1-(((S)-1-(methoxy-carbonyl)azetidin-2-yl)methyl)piperidin-4-yl)-1-methyl-1H-indazol-5-yl)-5-methyl-benzo[d]thiazol-6-yl)acetic acid], the EC50 with HIV-IIIb IN T174I BT was 214 nM; in the assay on HIV-IIIb (wildtype) (setting [1]), 4 nM; in the assay with HIV-IIIb IN T174I DE, 182 nM.
With `CC(=O)N1CC[C@H]1CN1CCC(c2nn(C)c3ccc(-c4nc5cc(C)c([C@H](OC(C)(C)C)C(=O)O)c(-c6ccc(Cl)cc6)c5s4)cc23)CC1` [Compound 151, (S)-2-(2-(3-(1-(((S)-1-acetyl-azetidin-2-yl)methyl)piperidin-4-yl)-1-methyl-1H-indazol-5-yl)-7-(4-chloro-phenyl)-5-methylbenzo[d]thiazol-6-yl)-2-(tert-butoxy) acetic acid], the EC50 worked out at 237 nM with HIV-IIIb IN T174I BT, 16 nM in the assay with HIV-IIIb (wildtype) (setting [1]) and 231 nM with HIV-IIIb IN T174I DE.
